Measured values reported in the NIST ThermoML archive (doi:10.1021/je034102r).

Assay: molar heat capacity at saturation pressure
Details: Small (less than 1 g) adiabatic calorimetry

CCCCn1cc[n+](C)c1.F[P-](F)(F)(F)(F)F [1-butyl-3-methylimidazolium hexafluorophosphate]
Details | molar heat capacity [J/K/mol]
110.13 K, Crystal | 163.1
112.28 K, Glass | 180.3
112.77 K, Crystal | 165.8
114.54 K, Glass | 183.2
115.37 K, Crystal | 168.1
116.84 K, Glass | 185.7
117.92 K, Crystal | 170.7
119.11 K, Glass | 188.2
120 K, Crystal | 172.9
120 K, Glass | 189.1
120.6 K, Crystal | 173.4
121.35 K, Glass | 190.5
123.41 K, Crystal | 176.3
123.71 K, Glass | 193.2
126.17 K, Crystal | 178.9
126.2 K, Glass | 195.8
128.66 K, Glass | 198.4
128.89 K, Crystal | 181.8
130 K, Crystal | 182.8
130 K, Glass | 200
131.16 K, Glass | 201.3
131.56 K, Crystal | 184.6
133.7 K, Glass | 204.1
134.28 K, Crystal | 187.2
136.2 K, Glass | 207.1
137.03 K, Crystal | 190.2
138.67 K, Glass | 209.8
139.75 K, Crystal | 193
140 K, Crystal | 193.1
140 K, Glass | 211
141.19 K, Glass | 212.4
142.43 K, Crystal | 195.6
143.75 K, Glass | 215.3
145.07 K, Crystal | 198.5
146.28 K, Glass | 217.9
147.68 K, Crystal | 201.1
148.93 K, Glass | 220.9
150 K, Crystal | 203.7
150 K, Glass | 222.2
150.26 K, Crystal | 204.1
151.7 K, Glass | 224.2
152.8 K, Crystal | 206.7
154.44 K, Glass | 226.9
155.32 K, Crystal | 209.6
157.14 K, Glass | 230.1
157.81 K, Crystal | 212.4
159.81 K, Glass | 233.2
160 K, Crystal | 214.6
160 K, Glass | 233.6
160.34 K, Crystal | 214.8
162.53 K, Glass | 236.6
162.92 K, Crystal | 217.8
165.29 K, Glass | 239.8
165.46 K, Crystal | 220.6
168.02 K, Glass | 243.1
168.07 K, Crystal | 223.6
170 K, Crystal | 225.7
170 K, Glass | 245.7
170.71 K, Crystal | 226.4
170.72 K, Glass | 246.4
173.34 K, Crystal | 229.6
173.39 K, Glass | 249.7
175.93 K, Crystal | 232.7
176.04 K, Glass | 253
177.26 K, Glass | 254.8
178.5 K, Crystal | 235.4
180 K, Crystal | 237.2
180 K, Glass | 258.1
180.15 K, Glass | 258.7
181.04 K, Crystal | 238.3
183.09 K, Glass | 263.9
183.56 K, Crystal | 241.2
186.06 K, Crystal | 244.3
186.06 K, Glass | 273
188.53 K, Crystal | 247.2
188.97 K, Glass | 285
190 K, Crystal | 248.8
190 K, Glass | 270.5
190.6 K, Glass | 271.2
190.6 K, Liquid | 352.9
190.98 K, Crystal | 249.9
191.7 K, Glass | 322.8
193.42 K, Crystal | 252.8
194.24 K, Glass | 351
194.81 K, Crystal | 254.5
196.8 K, Liquid | 355.5
197.49 K, Crystal | 257.7
199.36 K, Liquid | 356.4
200 K, Crystal | 260.7
200 K, Liquid | 356.9
200.29 K, Crystal | 260.8
201.91 K, Liquid | 357.9
203.07 K, Crystal | 264.4
204.58 K, Liquid | 359.1
205.82 K, Crystal | 267.4
207.37 K, Liquid | 360.1
208.72 K, Crystal | 270.5
210 K, Crystal | 272.2
210 K, Liquid | 361.4
210.22 K, Liquid | 361.4
211.76 K, Crystal | 274.3
213.13 K, Liquid | 363.4
214.78 K, Crystal | 277.7
217.77 K, Crystal | 280.9
220 K, Crystal | 283.4
220 K, Liquid | 366.1
220.73 K, Crystal | 284.4
223.67 K, Crystal | 287.4
226.59 K, Crystal | 290.7
229.55 K, Crystal | 293.6
230 K, Crystal | 294.2
230 K, Liquid | 370.9
232.58 K, Crystal | 297.2
235.59 K, Crystal | 300.4
238.56 K, Crystal | 303.6
238.61 K, Liquid | 375.5
240 K, Crystal | 305.2
240 K, Liquid | 376
240.98 K, Liquid | 376.4
241.58 K, Crystal | 307.1
243.49 K, Liquid | 377.7
244.65 K, Crystal | 310.8
246 K, Liquid | 379.1
247.69 K, Crystal | 313.5
248.49 K, Liquid | 379.9
250 K, Crystal | 316.7
250 K, Liquid | 381.1
250.71 K, Crystal | 316.9
250.97 K, Liquid | 381.9
253.43 K, Liquid | 382.8
253.7 K, Crystal | 320.9
256.03 K, Liquid | 384.1
256.67 K, Crystal | 323.9
258.86 K, Liquid | 386
259.68 K, Crystal | 327.4
260 K, Crystal | 328.2
260 K, Liquid | 386.5
261.82 K, Liquid | 387.4
262.73 K, Crystal | 331.8
264.77 K, Liquid | 388.5
265.76 K, Crystal | 335.3
267.7 K, Liquid | 390.6
268.75 K, Crystal | 342
270 K, Crystal | 339.6
270 K, Liquid | 392.1
270.75 K, Liquid | 392.9
273.92 K, Liquid | 394.4
277.07 K, Liquid | 396.2
279.27 K, Liquid | 397.3
280 K, Crystal | 351
280 K, Liquid | 397.8
280.22 K, Liquid | 397.8
282.28 K, Liquid | 399.3
283.51 K, Crystal | 355.1
283.51 K, Liquid | 399.8
285.27 K, Liquid | 401.1
288.25 K, Liquid | 402.9
290 K, Liquid | 403.8
290.53 K, Liquid | 404.3
291.29 K, Liquid | 404.5
293.21 K, Liquid | 406.2
294.38 K, Liquid | 406.7
296.25 K, Liquid | 407.3
297.45 K, Liquid | 409
298.15 K, Liquid | 408.7
299.28 K, Liquid | 409.7
300 K, Liquid | 409.8
300.51 K, Liquid | 409.8
302.31 K, Liquid | 411.6
303.56 K, Liquid | 411.8
305.32 K, Liquid | 412.9
306.66 K, Liquid | 414
308.31 K, Liquid | 414.6
309.81 K, Liquid | 416
310 K, Liquid | 415.9
311.31 K, Liquid | 416.3
320 K, Liquid | 422.3
340 K, Liquid | 434.7
360 K, Liquid | 446.2
380 K, Liquid | 457
400 K, Liquid | 466.9
420 K, Liquid | 476
440 K, Liquid | 484.3
460 K, Liquid | 491.8
480 K, Liquid | 498.5
500 K, Liquid | 504.4
520 K, Liquid | 509.5
540 K, Liquid | 513.8
550 K, Liquid | 515.6
